The results in this text go back to patent US20020019527A1 (priority 2000, published 2002).

Structures are written as SMILES. Where a name gives a salt, the structure may show the parent alone.

Test system in the first series: not listed separately
The experiment in a line: Cardiovascular liability test.
Conditions: not given
As for the experimental part: Representative compounds of the instant invention were also tested for cardiovascular liability (see Journal of Cardiovascular Pharmacology, 607-618: 37 (2001)).
On to `N#Cc1ccc(COC(c2ccc(C#N)c(-c3cccc4ccccc34)c2)c2cncs2)nc1` (stereo not shown) [Example 291, 6-(((4-cyano-3-(1-naphthyl)phenyl)(1,3-thiazol-5-yl)methoxy)methyl)nicotinonitrile], for which the “electrophysiological profile (cardiovascular liability)” value is listed as “improved electrophysiological profile”.

For another series, the target named is T1, Farnesyltransferase (FTase) (Bos taurus, UniProt P29702+P49355).
T1 construct: precipitation from a beef brain homogenate; from tissue; host or cells: bovine brain
T1 sequence (P49355 whole entry, one chain of several): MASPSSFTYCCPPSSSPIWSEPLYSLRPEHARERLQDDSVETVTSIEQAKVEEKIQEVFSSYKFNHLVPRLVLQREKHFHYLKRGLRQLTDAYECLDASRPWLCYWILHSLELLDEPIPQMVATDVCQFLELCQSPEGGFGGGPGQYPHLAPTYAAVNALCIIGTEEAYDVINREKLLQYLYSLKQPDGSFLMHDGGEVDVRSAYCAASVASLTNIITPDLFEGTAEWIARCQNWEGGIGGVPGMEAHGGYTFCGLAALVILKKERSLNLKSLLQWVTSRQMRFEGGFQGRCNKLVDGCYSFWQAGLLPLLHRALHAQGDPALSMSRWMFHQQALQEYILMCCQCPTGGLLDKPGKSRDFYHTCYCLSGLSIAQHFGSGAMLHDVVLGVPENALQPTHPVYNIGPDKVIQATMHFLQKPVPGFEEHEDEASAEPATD
Briefly: Farnesyltransferase inhibition (scintillation proximity assay, [3H]-FPP / biotin-K-ras peptide). Type of series: biochemical, bovine. To be noted: compound at 10^−6 M; bovine FTase, 37° C., 30 minutes. The essentials: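 Read-out: [3H]-FPP prenylation of a biotinylated K-ras peptide by SPA, measured 1 h after quenching. Enzyme: FTase purified from bovine brain (ammonium sulfate cut, DEAE Sepharose), free of GGTase I and II. Test compounds in ethanol, diluted 10-fold into the reaction.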
A general note: SPA uses beads or plates that emit light when radiolabelled molecules are held near them.
The % Inhibition is the relative decrease from the control value, in per cent. A lower % Inhibition goes with a response near the control. Consider `Cl.Cl.Cn1cncc1C(OCc1ccc(C#N)nc1)c1ccc(C#N)c(-c2cccc3ccccc23)c1` (stereo not shown) [Example 274, 5-(((4-cyano-3-(1-naphthyl)phenyl)(1-methyl-1H-imidazol-5-yl)methoxy)methyl)-2-pyridinecarbonitrile dihydrochlolide], for which the “% Inhibition at 10^−6M” value was found to be 100%.
In general, inhibition refers to the relative decrease from the control value, in per cent. Molecule `Cn1cncc1C(OCc1ccc(C#N)cc1)c1cnc(C#N)c(-c2cccc3ccccc23)c1` (stereo not shown) [Example 275, 5-(((4-cyanobenzyl)oxy)(1-methyl-1H-imidazol-5-yl)methyl)-3-(1-naphthyl)-2-pyridinecarbonitrile dihydrochloride] showed an inhibition at 1 µM of 100%.
With `Cn1cncc1C(OCc1ccc(N=[N+]=[N-])cc1)c1ccc(C#N)c(-c2cccc3ccccc23)c1` (stereo not shown) [Example 276, 4-((1-methyl-1H-imidazol-5-yl)((4-azidobenzyl)oxy)methyl)-2-(1-naphthyl)benzonitrile hydrochloride], the inhibition at 1 µM was 100%.
For `COC(=O)c1ccc(COC(c2ccc(C#N)c(-c3ccccc3C(F)(F)F)c2)c2cncn2C)nc1` (stereo not shown) [Example 277, methyl 6-(((6-cyano-2′-(trifluoromethyl)(1,1′-biphenyl)-3-yl)(1-methyl-1H-imidazol-5-yl)methoxy)methyl)nicotinate dihydrochloride], at 1 µM the inhibition was 95%.
On the same count and under the same terms, next, `Cc1cccc(-c2cc(C(OCc3ccc(C#N)cc3)c3cncn3C)ccc2C#N)c1C` (stereo not shown) [Example 278, 5-(((4-cyanobenzyl)oxy)(1-methyl-1H-imidazol-5-yl)methyl)-2′,3′-dimethyl(1,1′-biphenyl)-2-carbonitrile hydrochloride]: 99%; `Cn1cncc1C(OCc1ccc(C#N)cc1)c1ccc(C#N)c(-c2cccc(Cl)c2Cl)c1` (stereo not shown) [Example 279, 2′,3′-dichloro-5-(((4-cyanobenzyl)oxy)(1-methyl-1H-imidazol-5-yl)methyl)(1,1′-biphenyl)-2-carbonitrile hydrochloride]: 99%; `Cn1cncc1C(OCc1ccc(C#N)cn1)c1ccc(C#N)c(-c2cccc(Cl)c2Cl)c1` (stereo not shown) [Example 280, 6-(((2′,3′-dichloro-6-cyano(1,1′-biphenyl)-3-yl)(1-methyl-1H-imidazol-5-yl)methoxy)methyl)nicotinonitrile dihydrochloride]: 98%.
For the molecule `Cc1cccc(-c2cc(C(OCc3ccc(C#N)cn3)c3cncn3C)ccc2C#N)c1C` (stereo not shown) [Example 281, 6-(((6-cyano-2′,3′-dimethyl(1,1′-biphenyl)-3-yl)(1-methyl-1H-imidazol-5-yl)methoxy)methyl)nicotinonitrile dihydrochloride], the inhibition at 1 µM was determined as 98%.
Same read-out and setting: for `N#Cc1ccc(COC(c2ccsc2)c2ccc(C#N)c(-c3cccc4ccccc34)c2)nc1` (stereo not shown) [Example 289, 6-(((4-cyano-3-(1-naphthyl)phenyl)(3-thienyl)methoxy)methyl)nicotinonitrile] the value was 75%.
